Entries after “also recorded” stand apart in the source; their conditions may differ. Structures can show the parent of a compound that is named as a salt.

Data set [1] concerns ckr mouse. Kind of data set: Validation of ckr mouse model with antipsychotics (hyperactivity and circling). The class given is in vivo. The conditions noted are these: concentrations relevant to human clinical use. From the text: The ckr mouse was serendipitously created as a result of a transgenic insertional mutation. […] The ckr mouse also appears to show reduced social interactions resembling the social withdrawal that is part of the constellation of negative symptoms of schizophrenia. The mouse also presents lateral ventricular enlargement, which may mirror neuropathological observations in schizophrenia.
The model has been further validated by testing risperidone, haloperidol and pimozide in the ckr mouse. The behavioral output was assayed by measuring the rate of hyperactivity and circling after administration. […] Based on the foregoing, the ckr mouse model is considered to be valid for evaluation of compounds for use in reducing the symptoms of neuropsychiatric disorders in mammals, including humans.

The test system of data set [2] is chakragati (ckr) mice. Kind of data set: Screening of candidate compounds based on motor activity in ckr mice. It is filed as in vivo, mouse. The settings on record: for overall biological activity: based on receptor binding data and ckr mouse screening data (FIGS. 1 and 2, ANOVA). How it is done: To test the effect of compounds, including compounds of the present invention, on CNS function, chakragati (ckr) mice were used as a model. The DC series compounds were tested on motor activity and PPI in ckr mice.
(§1) Stock solutions of the drugs (DC1 to DC20) were dissolved in DMSO, and then diluted to 10 mg/10 mL with distilled water such that the final concentration of DMSO was 0.5%. Each animal received 10 mg/kg of the test drug in a volume of 0.1 mL per 10 g. […] These compounds were sonicated for 30 minutes in DMSO, acidified to pH 4 to 5 by drop-wise addition of 1M HCl, and then suspended in 20% cyclodextrin solution.
Twenty ckr mice (male and female, 3 months old) were randomly assigned to receive test drugs or 0.5% DMSO vehicle. Each drug was tested in 5 mice. Each mouse received up to 5 randomly assigned drugs in random order. Each treatment was separated by a minimum washout period of 3 days. On the day of testing, mice were brought into the behavioral test room and allowed to acclimatize for at least 1 hour. They then received intraperitoneal injections of the 0.1 mL/10 g (10 mg/kg) of the test drug solutions or vehicle.
They were returned to their cage and 20 minutes later they were placed in a 190 mm diameter, 300 mm deep circular recording chamber. Four mice were tested simultaneous in 4 separate chambers. Between each testing session the chambers were wiped down with 70% ethanol and allowed to dry for at least 10 minutes The mice were monitored with an overhead video camera for 15 min. Their behavior was videotaped and simultaneously digitized and tracked (Ethovision Version 2, Noldus). The total distance moved, the velocity of movement, and the time spent moving were calculated.
The data for each parameter were separately analyzed by one-way ANOVA (Analysis of Variance) and post hoc Dunnett's comparisons with the vehicle-treated control group. Tukey's HSD test was applied for post hoc comparisons between groups. p<0.05 was considered statistically significant.

The nature of data set [3]: Preparation of drug solutions (dissolution in DMSO). It is filed as physicochemical. The conditions noted are these: stock solution preparation. As to the method:
as §1

For data set [4], the target named is T1, 5-HT transport sites (Rattus norvegicus, UniProt P31652).
T1 construct: striatum and frontal cortex dissected from frozen Sprague-Dawley rat brains (Pel-Freez, Rogers, Ark.); tissue Pel-Freez, Rogers, Ark; host or cells: rat frontal cortex membranes (Sprague-Dawley rat brain)
The data set is described as follows: Displacement of [3H]paroxetine binding in membranes from rat frontal cortex. As to the method:
Binding of substituted pyrrolidine compounds at biogenic amine transporters was determined using striatum and frontal cortex dissected from frozen Sprague-Dawley rat brains (Pel-Freez, Rogers, Ark.). Affinities of the compounds at dopamine (DA) transport sites were determined by displacement of [^125I] 3 beta-(4-iodophenyl)tropan-2 beta-carboxylic acid methyl ester (RTI-55) binding in membranes from rat striatum, using 0.5 mg (original wet weight) of membranes and 10 pM [^125I]RTI-55. Non-specific binding was determined in the presence of 1 μM 2β-propanoyl-3β-(2-naphthyl) tropane (WF-23). Affinities of the compounds at 5-HT transport sites were determined by displacement of [^3H]paroxetine binding in membranes from rat frontal cortex, using 50 mg (original wet weight) of membranes and 0.4 nM [^3H]paroxetine. Non-specific binding was determined in the presence of 10 μM fluoxetine. Binding of the compounds at norepinephrine (NE) transport sites was determined by displacement of [^3H]nisoxetine binding in membranes from rat forebrain, using 0.7 nM [^3H]nisoxetine. Non-specific binding was determined in the presence of 1 μM desipramine.
Potencies in FIGS. 3 and 4 were calculated from displacement curves using 7-10 concentrations of unlabeled compounds, as analyzed by non-linear curve fitting. […]

T1 sequence (P31652 whole entry): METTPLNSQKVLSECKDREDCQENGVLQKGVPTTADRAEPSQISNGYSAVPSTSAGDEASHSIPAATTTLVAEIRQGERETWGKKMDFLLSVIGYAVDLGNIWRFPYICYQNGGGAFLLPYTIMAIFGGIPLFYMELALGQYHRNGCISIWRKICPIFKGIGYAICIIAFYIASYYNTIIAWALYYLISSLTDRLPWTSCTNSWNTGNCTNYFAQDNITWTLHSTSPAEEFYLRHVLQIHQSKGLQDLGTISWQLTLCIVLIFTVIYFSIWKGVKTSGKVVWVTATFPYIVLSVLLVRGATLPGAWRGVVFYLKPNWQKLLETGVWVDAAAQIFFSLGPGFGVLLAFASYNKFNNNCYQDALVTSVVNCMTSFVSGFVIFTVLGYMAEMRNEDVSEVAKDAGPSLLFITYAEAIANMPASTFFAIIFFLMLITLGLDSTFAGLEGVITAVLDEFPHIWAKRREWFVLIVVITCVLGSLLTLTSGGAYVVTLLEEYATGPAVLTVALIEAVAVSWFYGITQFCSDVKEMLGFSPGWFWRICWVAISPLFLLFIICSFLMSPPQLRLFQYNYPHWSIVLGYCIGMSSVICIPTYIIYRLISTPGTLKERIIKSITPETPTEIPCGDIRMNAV

As to `O=C(CCCN1CCC(O)(c2ccc(Cl)cc2)CC1)c1ccc(F)cc1` [haloperidol], in data set [1], the “hyperactivity in ckr mice” value was “dose-dependent attenuation”.
In the case of `COC(=O)[C@H](c1ccc2ccccc2c1)[C@@H]1C[C@@H](OC)CN1` [DC16, (R)-methyl 2-((2S,4R)-4-methoxypyrrolidin-2-yl)-2-(naphthalen-2-yl)acetate hydrochloride], the overall biological activity entry in data set [2] (hydrochloride) is given as “has biological activity; also recorded: favorable biological activity”. Further, in data set [2] (ckr mice, 10 mg/kg intraperitoneal, 20 minutes after injection, monitored 15 min, vs vehicle (FIG. 1a)), the total distance moved result is on record as “trend towards decreased”. Moreover, the velocity of movement entry in data set [2] (ckr mice, 10 mg/kg intraperitoneal, 20 minutes after injection, monitored 15 min, vs vehicle (FIG. 1b)) is recorded as “trend towards decreased”. Also, the time spent moving result in data set [2] (ckr mice, 10 mg/kg intraperitoneal, 20 minutes after injection, monitored 15 min, vs vehicle (FIG. 1c)) is “trend towards a decrease”. The “solubility in DMSO alone” value in data set [3] is “difficult to dissolve in DMSO alone”.
For the compound `Cc1nc2n(c(=O)c1CCN1CCC(c3noc4cc(F)ccc34)CC1)CCCC2` [risperidone], the “hyperactivity in ckr mice” value in data set [1] is “dose-dependent attenuation”.
`COC(=O)[C@H](c1ccc(Cl)c(Cl)c1)[C@@H]1C[C@@H](O)CN1` [DC-17, (R)-methyl 2-(3,4-dichlorophenyl)-2-((2S,4R)-4-hydroxypyrrolidin-2-yl)acetate hydrochloride]: the overall biological activity result in data set [2] is reported as “favorable biological activity”.
Regarding `COC(=O)[C@H](c1ccc2ccccc2c1)[C@@H]1C[C@@H](O)CN1.Cl` [HDMP-80, (R)-methyl 2-((2S,4R)-4-hydroxypyrrolidin-2-yl)-2-(naphthalen-2-yl)acetate hydrochloride], the “binding affinity for the serotonin transporter” value in data set [4] is listed as “high binding affinity”.

These data come from patent US8329741B2, “Substituted pyrrolidine compounds with central nervous system activity” (The Research Foundation of State University of New York, priority 2007, dated 2012).
